Measurements: US8053435B2, “Naphthalenyloxypropenyl derivatives having inhibitory activity against histone deacetylase and pharmaceutical composition comprising the same” (Korea Research Institute of Chemical Technology, priority 2006, dated 2011)
Read-outs that look alike come from different tables or passages of the source.

Experiments:
HDAC = test: Inhibitory activity against HDAC (BIOMOL Quantizyme Assay system, Fluor de Lys substrate); assay type: biochemical; settings: HeLa nuclear extract as source of HDAC enzymes, enzyme reaction 1 hr, read-out: IC50 (HDAC inhibitory concentration)
Protocol: HDAC activity was analyzed using BIOMOL Quantizyme™ Assay system which comprised two steps of 1) enzyme reaction between HDAC and a substrate and 2) determination of the level of HDAC inhibitory activity.
(§1) 0.5 μl of HeLa nuclear organic layer (10 μM) (a source of HDAC enzymes) was then added thereto to a final concentration of 100 nM. The enzyme reaction was carried out for 1 hr.
Subsequently, in step 2), 2 μM tricostatin A was added to 50 μl of Flour de Lys™ developer, followed by allowing the mixture to react at room temperature for 15 minutes. The light excited at 355 nm and emitted at 460 nm from the fluorophore was measured with a fluorometric plate reader. The intensity of the fluorescence increases as the enzyme activity is higher. The HDAC inhibitory activity of each of the test compounds was determined and compared with that of the control.
0.5 μl of HeLa nuclear organic layer (10 μM) (a source of HDAC enzymes) was then added thereto to a final concentration of 100 nM, The enzyme reaction was carried out for 1 hr.
as §1, §1

[1] = test system: colon cancer cells HCT116; test: Inhibitory activity against proliferation of cancer cells, SRB (Sulforhodamine B) analysis; assay type: cell-based; settings: Homo sapiens, read-out: Inhibitory conc. against cancer cell growth (EC50 μM) HCT116
Protocol: Cancer cells were inoculated into a 96-well microplate at a concentration of 1×10^3˜3×10^3 cells/well and incubated under the condition of 37° C., 5% CO2 for 24 hrs. After the incubation was completed, 0.2, 1, 5, 25, or 100 μM of each of the compounds of Examples was added to the plate, and then the reactant was incubated for 48 hrs. After the substrate was stained with SRB, the anti-cancer activity was determined by comparing the amount of protein in the cells treated with the compound of Examples with that of protein in untreated cells.
Specifically, after the incubation was completed, the culture medium was removed from each well, and the cells were washed 3 times with PBS (pH 7.4). Then, a solution of 50% trichloroacetic acid (TCA) was added to each well in an amount of 50 μl/well at 4° C. for 1 hr to fix them. Then, the microplate was washed 5 times with distilled water and dried in air. […]
50 μl of a staining solution prepared by dissolving 0.4% SRB in 1% acetic acid was added to the wells, and the microplate was kept at room temperature for 1 hr. The well plate was then washed 5 times with 1% acetic acid to remove unbound SRB and dried in air. The stained cells were treated with 150 μl/well of 10 mM Tris-HCl solution (pH 10.5) to elute SRB from the cells, and the absorbance of the cells treated with the compounds of examples at 540 nm was measured, based on the absorbance of an untreated cell. The EC50 value representing inhibition of the cancer cell growth by the extent of 50% was calculated from the measured absorbance, and the results are shown in Table 6.

[2] = HCT-116, Table 2, 48 hrs incubation with compound
[3] = HCT-116, Table 4, 48 hrs incubation with compound

IC50 (HDAC; Table 1, formula (1) series) [nM]	EC50 [1, 2] [µM]	IC50 (HDAC; Table 3, formula (2) series) [nM]	EC50 [1, 3] [µM]	Molecule
6	0.54	–	–	CN1CCC(NC(=O)/C(=C/c2ccc(C(=O)NO)cc2)COc2cccc3ccccc23)CC1 [Example 1-1, (E)-4-(3-(1-Methylpiperidin-4-ylamino)-2-((naphthalen-1-yloxy)methyl)-3-oxoprop-1-enyl)-N-hydroxybenzamide]
14	0.5	–	–	CN(C)CC(C)(C)CNC(=O)/C(=C/c1ccc(C(=O)NO)cc1)COc1cccc2ccccc12 [Example 1-4]
23	0.63	–	–	COCC(C)NC(=O)/C(=C/c1ccc(C(=O)NO)cc1)COc1cccc2ccccc12 (stereo not drawn) [Example 1-6, (E)-4-(3-(1-Methoxypropan-2-ylamino)-2-((naphthalen-1-yloxy)methyl)-3-oxoprop-1-enyl)-N-hydroxybenzamide]
10	0.7	–	–	COc1ccc(CNC(=O)/C(=C/c2ccc(C(=O)NO)cc2)COc2cccc3ccccc23)cc1 [Example 1-7, (E)-4-(3-(4-Methoxybenzylamino)-2-((naphthalen-1-yloxy)methyl)-3-oxoprop-1-enyl)-N-hydroxybenzamide]
7	0.6	–	–	O=C(NCc1ccco1)/C(=C/c1ccc(C(=O)NO)cc1)COc1cccc2ccccc12 [Example 1-12, (E)-4-(3-(Furan-2-ylmethylamino)-2-((naphthalen-1-yloxy)methyl)-3-oxoprop-1-enyl)-N-hydroxybenzamide]
20	0.8	–	–	CN(C)c1ccc(CNC(=O)/C(=C/c2ccc(C(=O)NO)cc2)COc2cccc3ccccc23)cc1 [Example 1-13, (E)-4-(3-(4-(Dimethylamino)benzylamino)-2-((naphthalen-1-yloxy)methyl)-3-oxoprop-1-enyl)-N-hydroxybenzamide]
8	0.5	–	–	CCN1CCC(NC(=O)/C(=C/c2ccc(C(=O)NO)cc2)COc2cccc3ccccc23)CC1 [Example 1-17, (E)-4-(3-(1-Ethylpiperidin-4-ylamino)-2-((naphthalen-1-yloxy)methyl)-3-oxoprop-1-enyl)-N-hydroxybenzamide]
13	0.8	–	–	CN1CCCC1CCNC(=O)/C(=C/c1ccc(C(=O)NO)cc1)COc1cccc2ccccc12 (stereo not drawn) [Example 1-22, (E)-4-(3-(2-(1-Methylpyrrolidin-2-yl)ethylamino)-2-((naphthalen-1-yloxy)methyl)-3-oxo-1-propenyl)-N-hydroxy-benzamide]
–	0.7	–	–	CC(C)N1CCC(NC(=O)/C(=C/c2ccc(C(=O)NO)cc2)COc2cccc3ccccc23)CC1 [Example 1-23, (E)-4-(3-(1-Isopropylpiperidin-4-ylamino)-2-((naphthalen-1-yloxy)methyl)-3-oxoprop-1-enyl)-N-hydroxybenzamide]
–	–	5	0.8	COc1ccc(CNC(=O)/C(=C/CCCCC(=O)NO)COc2cccc3ccccc23)cc1 [Example 2-6, (E)-N8-Hydroxy-N1-(4-methoxybenzyl)-2-((naphthalen-1-yloxy)methyl)-2-octenediamide]
–	–	14	0.7	O=C(CCCCC=C(COc1cccc2ccccc12)C(=O)NCC1CCCO1)NO (stereo not drawn) [Example 2-8, (E)-N8-Hydroxy-2-((naphthalen-1-yloxy)methyl)-N1-(tetrahydrofuran-2-yl)methyl)-2-octenediamide]
–	–	6	0.6	O=C(CCCC/C=C(\COc1cccc2ccccc12)C(=O)NCc1ccco1)NO [Example 2-11, (E)-N1-(Furan-2-ylmethyl)-N8-hydroxy-2-((naphthalen-1-yloxy)methyl)-2-octenediamide]
–	–	6	0.5	CN(C)c1ccc(CNC(=O)/C(=C/CCCCC(=O)NO)COc2cccc3ccccc23)cc1 [Example 2-12, (E)-N1-(4-(Dimethylamino)benzyl)-N8-hydroxy-2-((naphthalen-1-yloxy)methyl)-2-octenediamide]
–	–	24	0.6	COCCNC(=O)/C(=C/CCCCC(=O)NO)COc1cccc2ccccc12 [Example 2-13, (E)-N8-Hydroxy-N1-(2-methoxyethyl)-2-((naphthalen-1-yloxy)methyl)-2-octenediamide]
–	–	–	0.8	O=C(CCCC/C=C(\COc1cccc2ccccc12)C(=O)NC1CCCCC1)NO [Example 2-14, (E)-N1-Cyclohexyl-N8-hydroxy-2-((naphthalen-1-yloxy)methyl)-2-octenediamide]
–	–	8	0.4	O=C(CCCC/C=C(\COc1cccc2ccccc12)C(=O)NCc1cccs1)NO [Example 2-15, (E)-N8-Hydroxy-2-((naphthalen-1-yloxy)methyl)-N1-(thiophen-2-ylmethyl)-2-octenediamide]
–	–	17	0.7	COc1ccc(CCNC(=O)/C(=C/CCCCC(=O)NO)COc2cccc3ccccc23)cc1 [Example 2-16, (E)-N8-Hydroxy-N1-(4-methoxyphenethyl)-2-((naphthalen-1-yloxy)methyl)-2-octenediamide]
–	–	13	0.8	O=C(CCCC/C=C(\COc1cccc2ccccc12)C(=O)NC1CCN(C2CCCC2)CC1)NO [Example 2-19, (E)-N1-(1-Cyclopentylpiperidin-4-yl)-N8-hydroxy-2-((naphthalen-1-yloxy)methyl)-2-octenediamide]
–	–	7	0.9	O=C(CCCC/C=C(\COc1cccc2ccccc12)C(=O)NC1CCN(Cc2ccccc2)C1)NO (stereo not drawn) [Example 2-20, (E)-N1-(1-Benzylpyrrolidin-3-yl)-N8-hydroxy-2-((naphthalen-1-yloxy)methyl)-2-octenediamide]
–	–	12	1	CC(C)N1CCC(NC(=O)/C(=C/CCCCC(=O)NO)COc2cccc3ccccc23)C1 (stereo not drawn) [Example 2-21, (E)-N8-Hydroxy-N1-(1-isopropylpyrrolidin-3-yl)-2-((naphthalen-1-yloxy)methyl)-2-octenediamide]
–	–	10	0.5	O=C(CCCC/C=C(\COc1ccc2ccccc2c1)C(=O)NC1CCN(C2CCCCC2)C1)NO (stereo not drawn) [Example 2-25, (E)-N1-(1-Cyclohexylpyrrolidin-3-yl)-N8-hydroxy-2-((naphthalen-2-yloxy)methyl)-2-octenediamide]
–	–	11	< 0.2	O=C(CCCC/C=C(\COc1cccc2ccccc12)C(=O)NC1CCN(C2CC2)C1)NO (stereo not drawn) [Example 2-26, (E)-N1-(1-Cyclopropylpyrrolidin-3-yl)-N8-hydroxy-2-((naphthalen-1-yloxy)methyl)-2-octenediamide]
–	–	16	0.32	O=C(CCCC/C=C(\COc1cccc2ccccc12)C(=O)NC1CCN(C2CC2)CC1)NO [Example 2-27, (E)-N1-(1-Cyclopropylpiperidin-4-yl)-N8-hydroxy-2-((naphthalen-1-yloxy)methyl)-2-octenediamide]
–	–	10	0.9	CCN1CCC(NC(=O)/C(=C/CCCCC(=O)NO)COc2cccc3ccccc23)C1 (stereo not drawn) [Example 2-29, (E)-N1-(1-Ethylpyrrolidin-3-yl)-N8-hydroxy-2-((naphthalen-1-yloxy)methyl)-2-octenediamide]
–	–	15	0.7	CC(C)N1CCC(NC(=O)/C(=C/CCCCC(=O)NO)COc2cccc3ccccc23)CC1 [Example 2-30, (E)-N8-Hydroxy-N1-(1-isopropylpiperidin-4-yl)-2-((naphthalen-1-yloxy)methyl)-2-octenediamide]
–	–	9	–	(E)-N1-(2-(Diisopropylamino)ethyl)-N8-hydroxy-2-((naphthalen-1-yloxy)methyl)octenediamide [Example 2-4]
–	–	21	–	(E)-N1-(3-(Dimethylamino)-2,2-dimethylpropyl)-N8-hydroxy-2-((naphthalen-1-yloxy)methyl)octenediamide [Example 2-3]

Molecule	IC50 (HDAC; Table 1, formula (1) series) [nM]	EC50 [1, 2] [µM]	IC50 (HDAC; Table 3, formula (2) series) [nM]	EC50 [1, 3] [µM]
(E)-(3-(3-(Pyrrolidin-1-yl)propylamino)-2-((naphthalen-1-yloxy)methyl)-3-oxoprop-1-enyl)-N-hydroxybenzamide [Example 1-20]	6	–	–	–
